Source: ChEMBL document CHEMBL1133879, “Nicotinamide N-oxides as CXCR2 antagonists” (Bioorg Med Chem Lett, 2001)

Legend:
[1] = target: T1, C-X-C chemokine receptor type 2 (Homo sapiens, UniProt P25025); experiment: Compound binding was evaluated using an SPA assay with recombinant human [125I]IL-8 and membranes prepared from Sf9 cells expressing human C-X-C chemokine receptor type 2; assay type: cell membranes
T1 sequence (P25025 whole entry): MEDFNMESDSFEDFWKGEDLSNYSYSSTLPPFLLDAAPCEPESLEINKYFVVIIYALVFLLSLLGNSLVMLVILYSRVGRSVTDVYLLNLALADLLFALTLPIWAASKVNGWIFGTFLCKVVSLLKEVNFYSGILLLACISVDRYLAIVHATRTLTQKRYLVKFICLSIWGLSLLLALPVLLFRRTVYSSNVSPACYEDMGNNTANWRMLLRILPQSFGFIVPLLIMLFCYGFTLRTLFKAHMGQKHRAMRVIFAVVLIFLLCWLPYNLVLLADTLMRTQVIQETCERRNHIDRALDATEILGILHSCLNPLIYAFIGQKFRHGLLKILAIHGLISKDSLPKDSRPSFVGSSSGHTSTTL

[2] = species on record: Homo sapiens; experiment: Ability to block GRO-alpha driven human neutrophil chemotaxis; assay type: functional, organism-based
[3] = target: T2, Gastrin/cholecystokinin type B receptor (Homo sapiens) (UniProt P32239); experiment: Displacement of [3H]CCK-8 from NIH3T3 (mouse embryo cell membrane ) expressing human cholecystokinin CCKB receptor; assay type: cell membranes; set-up: concentration or dose not given beside the values; settings: concentration not given here
T2 sequence (whole entry): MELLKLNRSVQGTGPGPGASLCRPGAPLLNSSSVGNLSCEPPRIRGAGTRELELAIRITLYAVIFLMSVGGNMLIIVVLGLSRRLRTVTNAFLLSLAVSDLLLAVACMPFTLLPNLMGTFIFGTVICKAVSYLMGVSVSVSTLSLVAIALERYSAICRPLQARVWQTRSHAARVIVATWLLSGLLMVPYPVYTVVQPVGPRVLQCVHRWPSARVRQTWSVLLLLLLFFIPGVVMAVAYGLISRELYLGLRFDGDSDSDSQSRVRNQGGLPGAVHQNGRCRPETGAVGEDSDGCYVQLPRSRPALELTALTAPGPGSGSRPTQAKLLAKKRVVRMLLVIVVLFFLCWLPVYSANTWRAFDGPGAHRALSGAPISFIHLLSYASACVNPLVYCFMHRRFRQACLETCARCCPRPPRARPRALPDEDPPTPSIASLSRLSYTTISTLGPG

[4] = target: T3, C-X-C chemokine receptor type 1 (Homo sapiens) (UniProt P25024); experiment: Displacement of [125I]IL-8 from CHO cell membrane expressing human CXCR1 receptor at a concentration of 20 uM; assay type: cell membranes
T3 sequence (whole entry): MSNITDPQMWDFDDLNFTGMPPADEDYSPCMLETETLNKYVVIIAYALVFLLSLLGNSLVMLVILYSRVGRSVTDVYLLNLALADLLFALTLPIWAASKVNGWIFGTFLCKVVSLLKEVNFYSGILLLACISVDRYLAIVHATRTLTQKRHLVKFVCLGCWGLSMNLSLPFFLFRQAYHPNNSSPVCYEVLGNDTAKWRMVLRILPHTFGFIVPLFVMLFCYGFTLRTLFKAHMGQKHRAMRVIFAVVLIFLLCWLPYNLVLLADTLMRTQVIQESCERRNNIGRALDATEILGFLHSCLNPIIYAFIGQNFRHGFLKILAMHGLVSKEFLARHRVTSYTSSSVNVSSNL

[5] = target: T1, C-X-C chemokine receptor type 2; experiment: Evaluated using an SPA assay with recombinant human [125I]IL-8 and membranes prepared from Sf9 cells expressing human CXCR2
[6] = target: T4, C-X-C chemokine receptor type 2 (Homo sapiens) (UniProt P25025); experiment: Displacement of [125I]IL-8 from CHO cell membrane expressing human CXCR2 receptor at a concentration of 20 uM; assay type: cell membranes
T4 sequence (whole entry): T1 sequence (P25025 whole entry)

[7] = target: T5, Endothelin receptor type B (Homo sapiens) (UniProt P24530); experiment: Displacement of [125I]endothelin from CHO cell membrane expressing human Endothelin B receptor; assay type: cell membranes; set-up: concentration or dose not given beside the values; settings: concentration not given here
T5 sequence (whole entry): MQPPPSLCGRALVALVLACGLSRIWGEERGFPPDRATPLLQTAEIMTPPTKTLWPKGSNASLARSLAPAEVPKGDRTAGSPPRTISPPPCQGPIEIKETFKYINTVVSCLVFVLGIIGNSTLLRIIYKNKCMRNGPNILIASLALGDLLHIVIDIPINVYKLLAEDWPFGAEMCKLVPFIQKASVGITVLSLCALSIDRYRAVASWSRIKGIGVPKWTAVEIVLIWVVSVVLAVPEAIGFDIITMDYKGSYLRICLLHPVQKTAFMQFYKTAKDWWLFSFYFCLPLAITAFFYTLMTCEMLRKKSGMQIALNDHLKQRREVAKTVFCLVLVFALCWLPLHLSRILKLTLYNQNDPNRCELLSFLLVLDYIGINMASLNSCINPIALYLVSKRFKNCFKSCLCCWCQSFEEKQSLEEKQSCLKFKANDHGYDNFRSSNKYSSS

[8] = species on record: Homo sapiens; experiment: Functional selectivity was assessed in a neutrophil chemotaxis assay using N-formyl-methionyl-leucyl-phenylalanine (FMLP); assay type: organism-based
[9] = target: T6, Neuropeptide Y receptor type 1 (Homo sapiens) (UniProt P25929); experiment: Displacement of [125I]-peptide YY (PYY) from SK-N-MC (human neuroblastoma) cell membrane expressing human Neuropeptide Y receptor type 1; set-up: concentration or dose not given beside the values; settings: concentration not given here
T6 sequence (whole entry): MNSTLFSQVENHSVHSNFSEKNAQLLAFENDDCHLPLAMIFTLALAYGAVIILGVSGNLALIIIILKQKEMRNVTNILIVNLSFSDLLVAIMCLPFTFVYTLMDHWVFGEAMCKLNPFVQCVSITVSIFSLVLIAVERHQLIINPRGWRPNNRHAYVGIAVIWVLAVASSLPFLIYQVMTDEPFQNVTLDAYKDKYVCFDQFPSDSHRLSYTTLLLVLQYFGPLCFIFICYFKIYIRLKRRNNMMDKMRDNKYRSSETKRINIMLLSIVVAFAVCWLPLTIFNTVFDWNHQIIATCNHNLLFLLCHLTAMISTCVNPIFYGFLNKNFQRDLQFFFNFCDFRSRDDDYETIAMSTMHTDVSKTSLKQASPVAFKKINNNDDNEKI

[10] = target: Somatostatin receptor (Mus musculus) (UniProt P30935+O08858+P30875+P30873+P49660); experiment: Displacement of [125I]-TYR somatostatin from At-T-20 (mouse pituitary) cell membrane expressing somatostatin receptor; assay type: cell membranes; settings: Pituitary gland cell; concentration not given here
[11] = target: T7, Calcitonin receptor (Homo sapiens) (UniProt P30988); experiment: Displacement of [125I]calcitonin from T-47D (human breast cancer) cell membrane expressing human calcitonin receptor; assay type: cell membranes; settings: T47D; concentration not given here
T7 sequence (whole entry): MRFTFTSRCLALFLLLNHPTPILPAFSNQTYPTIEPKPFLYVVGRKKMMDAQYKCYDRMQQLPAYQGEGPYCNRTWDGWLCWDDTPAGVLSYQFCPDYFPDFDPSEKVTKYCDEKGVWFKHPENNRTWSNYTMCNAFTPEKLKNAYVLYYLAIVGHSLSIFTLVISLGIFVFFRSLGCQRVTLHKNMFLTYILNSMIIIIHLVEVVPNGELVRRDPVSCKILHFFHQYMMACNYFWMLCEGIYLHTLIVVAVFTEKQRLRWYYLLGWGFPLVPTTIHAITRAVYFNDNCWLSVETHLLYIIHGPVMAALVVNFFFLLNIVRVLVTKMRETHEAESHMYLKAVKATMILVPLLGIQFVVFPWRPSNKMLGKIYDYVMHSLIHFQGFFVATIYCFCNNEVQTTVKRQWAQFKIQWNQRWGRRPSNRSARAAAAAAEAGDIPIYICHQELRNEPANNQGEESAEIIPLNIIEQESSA

Sequence of Somatostatin receptor (Mus musculus) (P30935 whole entry): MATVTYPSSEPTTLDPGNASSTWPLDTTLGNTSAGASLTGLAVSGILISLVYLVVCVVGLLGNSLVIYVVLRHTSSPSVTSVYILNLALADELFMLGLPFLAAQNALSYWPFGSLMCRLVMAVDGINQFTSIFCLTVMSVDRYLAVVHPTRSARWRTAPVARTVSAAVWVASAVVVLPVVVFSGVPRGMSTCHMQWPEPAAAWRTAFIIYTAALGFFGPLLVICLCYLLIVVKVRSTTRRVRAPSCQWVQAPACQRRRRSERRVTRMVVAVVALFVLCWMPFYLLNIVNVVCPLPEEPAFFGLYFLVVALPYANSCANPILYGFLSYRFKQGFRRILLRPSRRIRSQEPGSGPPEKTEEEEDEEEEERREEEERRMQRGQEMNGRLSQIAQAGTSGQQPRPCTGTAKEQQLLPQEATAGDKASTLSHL
Sequence of Somatostatin receptor (Mus musculus) (O08858 whole entry): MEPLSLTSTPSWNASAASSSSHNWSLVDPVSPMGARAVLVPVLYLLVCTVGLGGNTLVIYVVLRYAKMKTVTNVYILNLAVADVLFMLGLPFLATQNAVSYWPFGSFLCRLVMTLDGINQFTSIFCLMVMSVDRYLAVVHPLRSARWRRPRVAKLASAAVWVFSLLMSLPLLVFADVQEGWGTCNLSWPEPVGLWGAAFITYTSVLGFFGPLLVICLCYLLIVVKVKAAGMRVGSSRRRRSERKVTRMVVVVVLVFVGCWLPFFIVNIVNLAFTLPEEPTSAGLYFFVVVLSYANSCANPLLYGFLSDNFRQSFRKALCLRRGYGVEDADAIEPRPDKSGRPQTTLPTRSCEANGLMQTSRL
Sequence of Somatostatin receptor (Mus musculus) (P30875 whole entry): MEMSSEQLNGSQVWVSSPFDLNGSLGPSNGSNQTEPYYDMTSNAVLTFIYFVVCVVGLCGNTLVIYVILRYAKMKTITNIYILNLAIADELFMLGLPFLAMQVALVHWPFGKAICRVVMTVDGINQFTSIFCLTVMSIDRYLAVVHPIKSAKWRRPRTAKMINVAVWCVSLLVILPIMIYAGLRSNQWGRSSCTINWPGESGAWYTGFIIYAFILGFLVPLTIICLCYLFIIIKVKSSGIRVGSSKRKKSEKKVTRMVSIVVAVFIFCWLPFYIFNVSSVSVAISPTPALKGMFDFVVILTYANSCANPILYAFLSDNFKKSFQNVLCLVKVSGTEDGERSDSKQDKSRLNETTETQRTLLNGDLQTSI
Sequence of Somatostatin receptor (Mus musculus) (P30873 whole entry): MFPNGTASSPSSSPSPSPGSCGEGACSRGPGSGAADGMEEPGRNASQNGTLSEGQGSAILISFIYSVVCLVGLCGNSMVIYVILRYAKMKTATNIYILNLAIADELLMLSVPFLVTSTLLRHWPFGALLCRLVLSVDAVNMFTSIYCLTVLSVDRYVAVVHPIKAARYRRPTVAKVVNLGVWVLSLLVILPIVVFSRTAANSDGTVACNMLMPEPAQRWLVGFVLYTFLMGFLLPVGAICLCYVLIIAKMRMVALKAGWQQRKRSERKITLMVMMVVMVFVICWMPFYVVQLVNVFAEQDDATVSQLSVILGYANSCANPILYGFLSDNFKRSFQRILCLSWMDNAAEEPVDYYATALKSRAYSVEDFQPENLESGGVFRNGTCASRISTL
Sequence of Somatostatin receptor (Mus musculus) (P49660 with tags, fused parts or gaps): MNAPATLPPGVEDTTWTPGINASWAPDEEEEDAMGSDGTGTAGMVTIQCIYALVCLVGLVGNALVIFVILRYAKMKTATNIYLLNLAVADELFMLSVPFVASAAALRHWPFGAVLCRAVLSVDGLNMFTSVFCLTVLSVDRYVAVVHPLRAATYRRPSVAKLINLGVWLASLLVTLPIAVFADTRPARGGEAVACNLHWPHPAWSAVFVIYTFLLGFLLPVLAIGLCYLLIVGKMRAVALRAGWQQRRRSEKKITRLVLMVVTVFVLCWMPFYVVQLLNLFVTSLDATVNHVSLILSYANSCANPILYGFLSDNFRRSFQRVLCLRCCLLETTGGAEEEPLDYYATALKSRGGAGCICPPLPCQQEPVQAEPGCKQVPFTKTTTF

| Structure (SMILES) | IC50 [1] [nM] | IC50 [2] [nM] | inhibition [3] [%] | inhibition [4] [%] | IC50 [5] [nM] | inhibition [6] [%] | inhibition [7] [%] | IC50 [8] [nM] | inhibition [9] [%] | inhibition [10] [%] | inhibition [11] [%] |
| --- | --- | --- | --- | --- | --- | --- | --- | --- | --- | --- | --- |
| CS(=O)(=O)c1ccc(C(=O)Nc2ccc(F)cc2)c[n+]1[O-] |  | 2000 | 40 | 73 | 130 | 97 | 8 | 9600 | 58 | 60 |  |
| O=C(Nc1ccc(F)cc1)c1ccc(S(=O)(=O)c2ccccc2)[n+]([O-])c1 |  | > 20000 |  |  | 90 |  |  |  |  |  |  |
| CC(C)S(=O)(=O)c1ccc(C(=O)Nc2ccc(F)cc2)c[n+]1[O-] |  | 2000 |  |  | 400 |  |  |  |  |  |  |
| O=C(NC1CCCCC1)c1ccc(Cl)[n+]([O-])c1 |  | > 20000 |  |  | > 20000 |  |  |  |  |  |  |
| CCS(=O)(=O)c1ccc(C(=O)Nc2ccc(F)cc2)c[n+]1[O-] |  | 3300 | 14 | 8 | 130 | 97 | 15 | 13300 | 41 |  | 3 |
| O=C(NCc1ccc(F)cc1)c1ccc(Cl)[n+]([O-])c1 |  | > 20000 |  |  | > 20000 |  |  |  |  |  |  |
| O=C(Nc1ccc(F)cc1)c1ccc(S(=O)(=O)C2CCCC2)[n+]([O-])c1 |  | 1900 | 1 | 8 | 460 | 60 | -2 |  | -1 |  | 4 |
| O=C(Nc1ccccc1O)c1ccc(Cl)[n+]([O-])c1 |  | 4200 |  |  | > 20000 |  |  |  |  |  |  |
| COc1ccc(NC(=O)c2ccc(Cl)[n+]([O-])c2)cc1 |  | > 20000 |  |  | > 20000 |  |  |  |  |  |  |
| O=C(O)c1cccc(S(=O)(=O)c2ccc(C(=O)Nc3ccc(F)cc3)c[n+]2[O-])c1 |  | > 20000 |  |  | 32 |  |  |  |  |  |  |

Now those with a lower IC50 [2], led by results:

| IC50 [1] [nM] | IC50 [2] [nM] | inhibition [3] [%] | inhibition [4] [%] | IC50 [5] [nM] | inhibition [6] [%] | inhibition [7] [%] | IC50 [8] [nM] | inhibition [9] [%] | inhibition [10] [%] | inhibition [11] [%] | Structure (SMILES) |
| --- | --- | --- | --- | --- | --- | --- | --- | --- | --- | --- | --- |
| 110 | 170 |  |  |  |  |  |  |  |  |  | CCN(CC)CCCCNc1nc2cc(Cl)c(Cl)cc2nc1-c1ccc(-c2cccs2)s1 |
|  | 1100 | 11 | 68 | 1000 | 85 | 14 | > 40000 | 15 | -2 | -1 | O=C(Nc1ccc(F)cc1)c1ccc(Cl)[n+]([O-])c1 |
|  | 1300 |  |  | > 20000 |  |  |  |  |  |  | CC(C)(C)c1ccc(NC(=O)c2ccc(Cl)[n+]([O-])c2)cc1 |
|  | 10 |  |  |  |  |  |  |  |  |  | N#Cc1ccc(NC(=O)Nc2ccccc2Br)c2nn[nH]c12 |
|  | 1000 | 29 | 9 | 280 | 77 | 8 | 13000 | 32 | 38 |  | O=C(Nc1ccc(F)cc1)c1ccc(S(=O)(=O)Cc2ccccc2)[n+]([O-])c1 |
|  | 830 |  |  | > 20000 |  |  |  |  |  |  | O=C(NC(c1ccccc1)c1ccccc1)c1ccc(Cl)[n+]([O-])c1 |
|  | 500 |  |  | > 20000 |  |  |  |  |  |  | O=C(Nc1ccc(I)cc1)c1ccc(Cl)[n+]([O-])c1 |
